Our source for the Ki values is patent publication US8163728B2, “Pyrazoles” (Hoffmann-La Roche Inc., priority 2009, dated 2012).

The assay deals with T1, GABA A α5 (Homo sapiens, UniProt P18507+P31644).
T1 construct: expressed in transfected cells; host or cells: HEK293 cells, transiently transfected; membranes prepared from cell pellets
The experiment in a line: [3H]flumazenil competition binding, human GABA A α5β3γ2 receptors in HEK293 cell membranes. The following applies: human receptor α5β3γ2 transiently transfected in HEK293; 0.5 nM [3H]flumazenil; 1 hour at 4° C.; means of two determinations; read-out: hKi GABA A α5. The method, boiled down:
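Competition with [3H]flumazenil for binding to membranes of HEK293 cells transiently expressing human α5β3γ2, in Krebs-tris buffer pH 7.5. Incubated to equilibrium 1 h at 4 °C, filtered and scintillation-counted; Ki values are means of two determinations.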

Regarding `Cc1onc(-c2ccc(F)cc2)c1/C=C/c1cc(C(N)=O)n(C)n1` [Example 126, 5-{(E)-2-[3-(4-Fluoro-phenyl)-5-methyl-isoxazol-4-yl]vinyl}-2-methyl-2H-pyrazole-3-carboxylic acid amide], the Ki stood at 1.5 nM.
Consider `Cc1onc(-c2ccccc2)c1COc1cc(C(=O)NC2CCOC2)n(C)n1` (racemic) [Example 43, Rac-2-Methyl-5-(5-methyl-3-phenyl-isoxazol-4-ylmethoxy)-2H-pyrazole-3-carboxylic acid (tetrahydro-furan-3-yl)-amide], for which the Ki is 9.7 nM.
`Cc1onc(-c2ccc(F)cc2)c1/C=C/c1cc(C(=O)NCC(C)(C)O)[nH]n1` [Example 140, 5-{(E)-2-[3-(4-Fluoro-phenyl)-5-methyl-isoxazol-4-yl]vinyl}-2H-pyrazole-3-carboxylic acid (2-hydroxy-2-methyl-propyl)-amide]: the Ki came to 3.8 nM.
The value for `Cc1onc(-c2ccc(F)cc2)c1/C=C/c1cc(C(=O)N2CCS(=O)(=O)CC2)[nH]n1` [Example 131, (1,1-Dioxo-1,6-thiomorpholin-4-yl)-(5-{(E)-2-[3-(4-fluoro-phenyl)-5-methyl-isoxazol-4-yl]-vinyl}-2H-pyrazol-3-yl)-methanone] was 36.5 nM.
In the case of `Cc1onc(-c2ccc(F)cc2)c1CNc1cc(C(=O)NCC(C)(C)O)n(C)n1` [Example 144, 5-{[3-(4-Fluoro-phenyl)-5-methyl-isoxazol-4-ylmethyl]-amino}-2-methyl-2H-pyrazole-3-carboxylic acid (2-hydroxy-2-methyl-propyl)-amide], the Ki came out at 29.3 nM.
The value for `Cc1onc(-c2ccccn2)c1COc1cc(C(=O)NC(C)C)n[nH]1` [Example 14, 5-(5-Methyl-3-pyridin-2-yl-isoxazol-4-ylmethoxy)-1H-pyrazole-3-carboxylic acid isopropylamide] was 9.3 nM; that for `Cc1onc(-c2ccccc2)c1COc1cc(C(=O)NC2CCOCC2)n(C)n1` [Example 44, 2-Methyl-5-(5-methyl-3-phenyl-isoxazol-4-ylmethoxy)-2H-pyrazole-3-carboxylic acid (tetra-hydro-pyran-4-yl)-amide] was 3.1 nM; that for `Cn1nc(OCc2c(-c3ccc(Cl)cc3)noc2CO)cc1C(=O)N1CCC(F)(F)CC1` [Example 111, {5-[3-(4-Chloro-phenyl)-5-hydroxymethyl-isoxazol-4-ylmethoxy]-2-methyl-2H-pyrazol-3-yl}-(4,4-difluoro-piperidin-1-yl)-methanone] was 52.5 nM.
Regarding “5-{(E)-2-[3-(4-Fluoro-phenyl)-5-methyl-isoxazol-4-yl]vinyl}-2H-pyrazole-3-carboxylic acid (2-hydroxy-1-methyl-ethyl)-amide [Example 136]”, the Ki was 1 nM.
For `Cc1onc(-c2ccc(F)cn2)c1COc1cc(C(=O)NC(C)(C)C)[nH]n1` [Example 19, 5-[3-(5-Fluoro-pyridin-2-yl)-5-methyl-isoxazol-4-ylmethoxy]-2H-pyrazole-3-carboxylic acid tert-butylamide], the Ki was 17.8 nM.
In the case of `Cc1onc(-c2ccc(F)cc2)c1COc1cc(C(=O)N2CC(O)C2)n(C)n1` [Example 71, {5-[3-(4-Fluoro-phenyl)-5-methyl-isoxazol-4-ylmethoxy]-2-methyl-2H-pyrazol-3-yl}-(3-hydroxy-azetidin-1-yl)-methanone] it was 16.5 nM.
`Cc1onc(-c2ccc(F)cc2)c1/C=C/c1cc(C(=O)NC(C)C)n(C)n1` [Example 122, 5-{(E)-2-[3-(4-Fluoro-phenyl)-5-methyl-isoxazol-4-yl]vinyl}-2-methyl-2H-pyrazole-3-carboxylic acid isopropylamide]: the Ki turned out to be 1.6 nM.
The value for `Cc1onc(-c2ccc(F)cn2)c1COc1cc(C(=O)NN2CCOCC2)[nH]n1` [Example 23, 5-[3-(5-Fluoro-pyridin-2-yl)-5-methyl-isoxazol-4-ylmethoxy]-2H-pyrazole-3-carboxylic acid morpholin-4-ylamide] was 1.9 nM; that for `Cn1nc(OCc2c(-c3ccc(Cl)cc3)noc2CO)cc1C(=O)NCC(F)(F)C(F)(F)F` [Example 104, 5-[3-(4-Chloro-phenyl)-5-hydroxymethyl-isoxazol-4-ylmethoxy]-2-methyl-2H-pyrazole-3-carboxylic acid (2,2,3,3,3-pentafluoro-propyl)-amide] was 6.6 nM.
In the case of `COCCNC(=O)c1cc(OCc2c(-c3ccc(F)cc3)noc2C)nn1C` [Example 60, 5-[3-(4-Fluoro-phenyl)-5-methyl-isoxazol-4-ylmethoxy]-2-methyl-2H-pyrazole-3-carboxylic acid (2-methoxy-ethyl)-amide], the Ki worked out at 13.2 nM.
Turning to `Cc1onc(-c2ccccn2)c1CNc1cc(C(=O)NC2CCOCC2)n(C)n1` [Example 160, 2-Methyl-5-[(5-methyl-3-pyridin-2-yl-isoxazol-4-ylmethyl)-amino]-2H-pyrazole-3-carboxylic acid (tetrahydro-pyran-4-yl)-amide], the Ki was 25.4 nM.
In the case of `Cn1nc(OCc2c(-c3ccc(F)cc3)noc2CO)cc1C(=O)NCC(F)(F)C(F)(F)F` [Example 95, 5-[3-(4-Fluoro-phenyl)-5-hydroxymethyl-isoxazol-4-ylmethoxy]-2-methyl-2H-pyrazole-3-carboxylic acid (2,2,3,3,3-pentafluoro-propyl)-amide], the Ki was determined as 8 nM.
In the case of `CCCCc1noc(C)c1COc1cc(C(=O)NN2CCCC2)[nH]n1` [Example 40, 5-(3-Butyl-5-methyl-isoxazol-4-ylmethoxy)-2H-pyrazole-3-carboxylic acid pyrrolidin-1-ylamide] it was 21.5 nM.
In the case of `Cn1ccc(NC(=O)c2cc(OCc3c(-c4ccc(F)cc4)noc3CO)nn2C)n1` [Example 96, 5-[3-(4-Fluoro-phenyl)-5-hydroxymethyl-isoxazol-4-ylmethoxy]-2-methyl-2H-pyrazole-3-carboxylic acid (1-methyl-1H-pyrazol-3-yl)-amide], the Ki was 42.7 nM.
On to `CC(=O)NCCNC(=O)c1cc(OCc2c(-c3ccc(F)cc3)noc2C)nn1C` [Example 64, 5-[3-(4-Fluoro-phenyl)-5-methyl-isoxazol-4-ylmethoxy]-2-methyl-2H-pyrazole-3-carboxylic acid (2-acetylamino-ethyl)-amide], for which the Ki was 16.1 nM.
In the case of `Cc1onc(-c2ccccn2)c1COc1cc(C(=O)NC(C)CO)nn1C` (stereo in doubt) [Example 114, 1-Methyl-5-(5-methyl-3-pyridin-2-yl-isoxazol-4-ylmethoxy)-1H-pyrazole-3-carboxylic acid ((S)-2-hydroxy-1-methyl-ethyl)-amide] it was 16.2 nM; in that of `Cc1onc(-c2ccccn2)c1COc1cc(C(=O)NC(C)C)n(C)n1` [Example 78, 2-Methyl-5-(5-methyl-3-pyridin-2-yl-isoxazol-4-ylmethoxy)-2H-pyrazole-3-carboxylic acid isopropylamide], 30.2 nM; in that of `Cc1onc(-c2ccccn2)c1CNc1cc(C(=O)NC2(C)COC2)n(C)n1` [Example 162, 1-Methyl-3-((5-methyl-3-(pyridin-2-yl)isoxazol-4-yl)methylamino)-N-(3-methyloxetan-3-yl)-1H-pyrazole-5-carboxamide], 30.3 nM.
In the case of `CCNC(=O)c1cc(/C=C/c2c(-c3ccc(F)cc3)noc2C)nn1C` [Example 123, 5-{(E)-2-[3-(4-Fluoro-phenyl)-5-methyl-isoxazol-4-yl]vinyl}-2-methyl-2H-pyrazole-3-carboxylic acid ethylamide] it was 1.3 nM.
